{
  "source": "patent US8298522B1",
  "about": "“Methods of modulating MUC1 expression to inhibit inflammation” (priority 2005, dated 2012)",
  "molecules": {"B1": {"name": "PAK flagellin: P. aeruginosa strain K flagellin purified by differential centrifugation, single 50 kDa protein band (protein)", "chain": "ALTVNTNIASLNTQRNLNNSSASLNTSLQRLSTGSRINSAKDDAAGLQIANRLTSQVNGLNVATKNANDGISLAQTAEGALQQSTNILQRMRDLSLQSANGSNSDSERTALNGEVKQLQKELDRISNTTTFGGRKLLDGSFGVASFQVGSAANEIISVGIDEMSAESLNGTYFKADGGGAVTAATASGTVDIAIGITGGSAVNVKVDMKGNETAEQAAAKIAAAVNDANVGIGAFSDGDTISYVSKAGKDGSGAITSAVSGVVIADTGSTGVGTAAGVTPSATAFAKTNDTVAKIDISTAKGAQSAVLVIDEAIKQIDAQRADLGAVQNRFDNTINNLKNIGENVSAARGRIEDTDFAAETANLTKNQVLQQAGTAILAQANQLPQSVLSLLR"}},
  "key": {"TLR5 [1]": {"target": "T1, TLR5 (Homo sapiens, UniProt O60602)", "T1 sequence (O60602 21-858)": "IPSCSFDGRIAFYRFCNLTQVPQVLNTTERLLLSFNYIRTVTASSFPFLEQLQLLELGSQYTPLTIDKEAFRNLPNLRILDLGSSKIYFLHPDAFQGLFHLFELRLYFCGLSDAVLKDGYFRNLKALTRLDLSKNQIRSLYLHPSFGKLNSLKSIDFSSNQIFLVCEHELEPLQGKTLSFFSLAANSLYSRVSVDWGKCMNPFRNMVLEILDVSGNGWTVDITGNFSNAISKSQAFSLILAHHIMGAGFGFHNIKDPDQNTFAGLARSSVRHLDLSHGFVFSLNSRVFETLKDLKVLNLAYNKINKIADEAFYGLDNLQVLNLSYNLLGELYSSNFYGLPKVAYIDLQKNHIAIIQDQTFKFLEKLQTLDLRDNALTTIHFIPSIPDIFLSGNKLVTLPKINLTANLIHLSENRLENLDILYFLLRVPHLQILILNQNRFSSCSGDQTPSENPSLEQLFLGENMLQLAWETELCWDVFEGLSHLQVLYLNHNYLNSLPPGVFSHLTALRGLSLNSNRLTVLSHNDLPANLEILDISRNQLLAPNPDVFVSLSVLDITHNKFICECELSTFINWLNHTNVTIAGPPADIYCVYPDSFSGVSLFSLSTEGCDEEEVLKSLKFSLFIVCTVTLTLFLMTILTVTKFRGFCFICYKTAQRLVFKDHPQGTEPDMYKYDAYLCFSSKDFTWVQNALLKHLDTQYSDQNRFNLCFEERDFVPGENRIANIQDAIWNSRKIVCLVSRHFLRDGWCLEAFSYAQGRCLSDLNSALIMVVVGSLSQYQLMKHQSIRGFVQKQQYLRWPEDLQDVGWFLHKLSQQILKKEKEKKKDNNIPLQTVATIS", "experiment": "cell-based or functional assay"}, "[2]": {"test_system": "MUC1 protein in A549 cells", "conditions": "A549 cells, 5.0 μg/ml AcD or 10 μg/ml Chx, no NE", "description": "Confluent A549 cells were incubated in the presence or absence of 5.0 μg/ml of actinomycin (AcD) or 10 μg/ml of cycloheximide (Chx) for 1 hr and either non-treated or treated for 24 hr with 100 nM of NE. MUC1 protein levels in cell lysates (A) and spent media (B) were measured by ELISA. Each bar represents the mean±SEM (n=3). […] (C) Aliquots of spent media obtained from confluent A549 cells were non-treated (0 hr) or treated for 24 hr with 100 nM NE or vehicle control and MUC1 levels in the spent media determined by ELISA. Each bar represents the mean±SEM (n=3).\nA549 cells were seeded at 5.0×10^4 cells/well in 24-well plates in Dulbecco's Modified Eagle Medium (DMEM) containing 10% fetal bovine serum (FBS), 100 U/ml penicillin, and 100 μg/ml streptomycin (all from Invitrogen, Carlsbad, Calif.) and incubated at 37° C. in a humidified CO2 incubator. Confluent monolayers were washed with serum-free DMEM and treated with 100 nM (2.6 U/ml) NE or vehicle control (PBS) for 24 hr. In some experiments, the cells were pretreated for 1 hr with 5.0 μg/ml of actinomycin D or 10 μg/ml of cycloheximide prior to NE treatment. Following treatment, cell-conditioned media were collected, and the cells were washed with PBS and lysed with 500 μl/well of PBS containing 1.0% Triton X-100, 1.0% sodium deoxycholate, 1.0% protease inhibitor cocktail, and 2.0 mM phenylmethylsulfonyl fluoride (PMSF). Lysates and conditioned media were incubated for 20 min at 80° C. to inactivate residual NE, insoluble material removed by centrifugation at 14,000×g for 10 min at 4° C., and protein concentrations measured by the procedure of Bradford using bovine serum albumin as standard.\nELISA. A549 cell lysates or cell-conditioned culture media were centrifuged at 10,000×g for 10 min at 4° C., added in triplicate to 96-well ELISA plates (MaxiSorb™, Nalge Nunc, Rochester, N.Y.), and incubated overnight at 4° C. Wells were blocked for 1 hr at room temperature (about 22° C.) with PBS, pH 7.0, containing 10 mg/ml BSA and 50 mg/ml sucrose and washed with PBS containing 0.05% Tween 20 (PBS-T). The samples were reacted for 2 hr at room temperature with 200 μg/ml of primary MUC1 antibody (GP1.4), washed with PBS-T, reacted for 2 hr at room temperature with 200 μg/ml of secondary antibody (peroxidase-conjugated goat antimouse IgG) (KPL, Gaithersburg, Md.), and washed with PBS-T. Bound antibodies were detected with tetramethylbenzidine substrate (SureBlue™, KPL), the substrate reaction stopped with 1 N HCl, and absorbencies at 450 nm measured using a microplate spectrophotometer (Dexall, Gaithersburg, Md.)."}, "[3]": {"test_system": "MUC1 transcription (MEK/ERK signaling pathway)", "experiment": "TNF-α induced MUC1 expression in A549 lung epithelial cells", "type": "cell-based, human", "from_the_text": "TNF-α induces MUC1 expression through a MAP kinase pathway in human lung epithelial cells. TNF-α stimulates MUC1 transcription and protein expression in lung epithelial cells. Activation of MAP kinases and NF-κB was verified using Western blot analysis. […] TNF-α activate all three MAP kinases (ERK, p38, and JNK) as well as NF-κB. […] TNF-α stimulates MUC1 production in A549 cells through transcriptional activation via the MEK/ERK signaling pathway."}, "[4]": {"test_system": "ELAM-1 promoter activity in A549 lung carcinoma cells", "experiment": "ELAM-1 promoter-luciferase assay in A549 cells after MUC1 siRNA transfection", "type": "cell-based, human", "conditions": "8.0 nM siRNA 24 h, 10 ng/ml flagellin 6 h", "experimental": "To assess the effects of endogenous MUC1 expression on NF-κB activation, ELAM-1 promoter activity in A549 lung carcinoma cells following transfection with MUC1 with small interfering RNA (siRNA) duplexes was measured. Inhibition of MUC1 expression was confirmed by FACS analysis following treatment with the MUC1 siRNA but not a control RNA (data not shown).\nReferring now to FIG. 3, twenty four hours after transfection with the control RNA or MUC1 siRNA, A549 cells were treated with 10 ng/ml of flagellin or an equivalent amount of the fliC control for 6 hours. Cell lysates were prepared and luciferase activity measured as indicated in the examples section. […]\nHEK293T and A549 cells were seeded in 24-well plates at 2×10^5 and 5×10^4 cells/well respectively, incubated overnight, and transfected with the 0.4 μg/well of the NF-κB responsive pELAM-1 promoter-luciferase plasmid and 10 ng/well of the phRL-TK plasmid (Promega) as an internal control using 2 μl/well of Lipofectamine™2000 (Invitrogen) according to the manufacturer's instructions. The cells were incubated for 24 h at 37° C. in 5% CO2, treated with 10 ng/ml PAK flagellin or an equivalent volume of the fliC negative control for 6 h, and relative luciferase activity determined. […] Data are expressed as mean relative luciferase activity±SEM of triplicate or quadruplicate determinations."}, "MUC1": {"test_system": "MUC1", "experiment": "MUC1 siRNA knockdown of MUC1 expression in primary NHBE cells (immunoblot, FACS)", "type": "cell-based, human", "conditions": "1.5 μg siRNA, vs control RNA", "experimental": "(§1) Primary NHBE cells were nucleofected with 1.5 μg of a MUC1 siRNA or a non-targeting control RNA. At 48 h post-nucleofection, total MUC1 protein was determined by immunoblotting as described (20) (A) and cell surface MUC1 was determined by FACS analysis using anti-MUC1 (GP1.4, mouse IgG1, κ, Biomeda) as primary antibody and R-Phycoerythrin-conjugated goat anti-mouse IgG (Santa Cruz) as secondary antibody. Mouse IgG1 (κ isotype, eBioscience) was used as primary antibody to determine threshold fluorescence signal. (B). (C) Cells were stimulated with 10 ng/ml of flagellin for 6 h and IL-8 levels in basolateral medium were measured.\nMacrophages were harvested from BALF or the peritoneal space, and erythrocytes lysed with 10 mM Tris-HCl, pH 7.2 containing 150 mM NH4Cl. Peritoneal macrophages (PM) were harvested after treating mice i.p. with 3% thioglycollate for 3 days. The recovered cells consisted of >95% macrophages as determined by immunofluorescence using the F4/80 macrophage marker (eBioscience). Cells were seeded in 24-well tissue culture plates at 1.0×10^5 cells/well in DMEM containing 10% FBS, […], and allowed to adhere for 24 h before flagellin or LPS (PA10, Sigma) treatment. […]"}, "[5]": {"test_system": "IL-8 levels in primary NHBE cells", "experiment": "Flagellin-induced IL-8 levels in MUC1 siRNA-treated primary NHBE cells", "type": "cell-based, human", "conditions": "10 ng/ml flagellin 6 h, basolateral medium", "experimental": "as §1\nMacrophages were harvested from BALF or the peritoneal space, and erythrocytes lysed with 10 mM Tris-HCl, pH 7.2 containing 150 mM NH4Cl. Peritoneal macrophages (PM) were harvested after treating mice i.p. with 3% thioglycollate for 3 days. The recovered cells consisted of >95% macrophages as determined by immunofluorescence using the F4/80 macrophage marker (eBioscience). […]\n(§2) Mouse KC and TNF-α and human IL-8 were quantified by ELISA using commercially available antibodies (eBioscience; R&D Systems). All samples were analyzed in triplicate and standard curves were performed on each plate."}, "[6]": {"test_system": "ELAM-1 promoter (NF-κB activation, TLR5 signaling) in HEK293T cells", "experiment": "ELAM-1 promoter-luciferase reporter assay in HEK293T cells", "type": "cell-based, human", "conditions": "10 ng/ml PAK flagellin, 6 h", "from_the_text": "The relationship between TLR5 and MUC1 signaling in response to flagellin was investigated utilizing TLR5-expressing cells in the absence or presence of MUC1 expression. Initially, we screened a number of different airway and non-airway cell lines by Western blotting and/or real-time PCR with the goal of identifying a TLR5+/MUC1− host cells for transfection of the pMUC1 expression plasmid. Referring now to FIG. 1A, (A) HEK293T cells were transfected with pcDNA3.1 empty vector or the pMUC1 expression plasmid. After trypsinization, cells were reacted with normal mouse IgG or mouse anti-MUC1 antibody followed by PE-conjugated goat anti-mouse IgG antibody and examined by FACS analysis. […] Cell lysates were prepared and relative luciferase activity measured as indicated in Materials and Methods. […]\nHEK293T and A549 cells were seeded in 24-well plates at 2×10^5 and 5×10^4 cells/well respectively, incubated overnight, and transfected with the 0.4 μg/well of the NF-κB responsive pELAM-1 promoter-luciferase plasmid and 10 ng/well of the phRL-TK plasmid (Promega) as an internal control using 2 μl/well of Lipofectamine™2000 (Invitrogen) according to the manufacturer's instructions. The cells were incubated for 24 h at 37° C. in 5% CO2, treated with 10 ng/ml PAK flagellin or an equivalent volume of the fliC negative control for 6 h, and relative luciferase activity determined. […]"}, "TLR5 [7]": {"target": "T1, TLR5", "experiment": "Flagellin-driven IL-8 release in HEK293T cells with or without transfected TLR5", "type": "cell-based", "parameters": "V5-His (vector pEF6/V5-His); expressed in transfected cells; host or cells: HEK293T", "experimental": "TLR5 mediates flagellin-stimulated innate immune responses. Because TLR5 and MUC1/Muc1 are flagellin receptors and both are expressed by airway macrophages and epithelial cells the relationship between MUC1 and TLR5 in response to flagellin in HEK293T cells stably transfected with a MUC1 expressing plasmid and flagellin-driven IL-8 release was determined following transient transfection with a TLR5 expressing plasmid. HEK293T cells express TLR5 but not MUC1. […] Flagellin-induced increase in IL-8 release was completely abolished in cells co-transfected with MUC1 and TLR5. […] HEK293T cells stably transfected with the pcDNA3.1 empty vector (A) or plasmids encoding the full-length MUC1 or MUC1-ACT (B) were transiently transfected with a TLR5 expression plasmid or empty vector. At 24 h post-transfection, the cells were treated for 6 h with 10 ng/ml of flagellin or PBS, and IL-8 levels in medium were measured. […]\nas §2"}},
  "note": "*1 amine or outer side, *2 acyl side, *3 side chain or, on linkers, in order; H or OH if unused. Where a SMILES comes first, the peptide text is derived from it. Bridges are numbered along the chain shown (N, C = ends). Roman numbers before positions name the chains, in order. [ ]: non-standard residue; d: D form. Actinocin(9to1) = Cc1c2oc3c(C)ccc(C(=O)[*:1])c3nc-2c(C(=O)[*:2])c(N)c1=O; NMeV = CN[C@H](C(=O)O)C(C)C; d = 2'-deoxy (DNA); Sar = CNCC(=O)O; r = 2'-OH (RNA)",
  "data": [
    {"molecule": "P. aeruginosa strain K (PAK) flagellin (from UniProt P21184 2-394) (ligand)", "values": [
      {"measurement": "IL-8 release (HEK293T cells transfected with empty vector, endogenous TLR5; 10 ng/ml flagellin for 6 h vs PBS)", "setting": "TLR5 [1]", "result": 55, "unit": "% increase"},
      {"measurement": "IL-8 release (HEK293T cells transiently transfected with TLR5 expression plasmid; 10 ng/ml flagellin for 6 h vs PBS)", "setting": "TLR5 [1]", "result": 164, "unit": "% increase"},
      {"measurement": "relative luciferase activity (ELAM-1 promoter-luciferase reporter, HEK293T cells, 10 ng/ml flagellin vs fliC negative control)", "setting": "TLR5 [1]", "result": 10, "unit": "fold"}
    ]},
    {"molecule": "C[C@@H]1C[C@@H]([C@H](O)CC2CC(=O)NC(=O)C2)C(=O)[C@@H](C)C1", "note": "[Chx, cycloheximide]", "values": [
      {"measurement": "effect of treatment alone on cellular MUC1 levels", "setting": "[2]", "result": "did not significantly affect"}
    ]},
    {"molecule": "TNF-α", "values": [
      {"measurement": "effect on MUC1 protein and mRNA levels", "setting": "[3]; human lung epithelial (A549) cells", "result": "increased both MUC1 protein and mRNA levels"}
    ]},
    {"molecule": "Cc1c2oc3c(C)ccc(C(=O)N[C@@H]4C(=O)N[C@H](C(C)C)C(=O)N5CCC[C@H]5C(=O)N(C)CC(=O)N(C)[C@@H](C(C)C)C(=O)O[C@@H]4C)c3nc-2c(C(=O)N[C@@H]2C(=O)N[C@H](C(C)C)C(=O)N3CCC[C@H]3C(=O)N(C)CC(=O)N(C)[C@@H](C(C)C)C(=O)O[C@@H]2C)c(N)c1=O", "note": "[AcD, actinomycin D] (I: T[dV]P[Sar][NMeV] / II: T[dV]P[Sar][NMeV]; ester I:1-I:C, II:1-II:C; linker I:N-II:N via Actinocin(9to1))", "values": [
      {"measurement": "effect of treatment alone on cellular MUC1 levels", "setting": "[2]", "result": "did not significantly affect"}
    ]},
    {"molecule": "N#CC(=C(/N)Sc1ccccc1N)/C(C#N)=C(\\N)Sc1ccccc1N", "note": "[U0126]", "values": [
      {"measurement": "effect on TNF-α induced MUC1 transcription", "setting": "[3]; A549 cells, pretreatment with U0126", "result": "completely blocked"}
    ]},
    {"molecule": "MUC1 siRNA: 21-bp siRNA with a sequence derived from the MUC1 gene (Dharmacon); sense SEQ ID NO: 2, antisense SEQ ID NO: 3 (sense GUUCAGUGCCCAGCUCUACTT; antisense GUAGAGCUGGGCACUGAACTT; sugars from the 5' end r19 d2, backbone not given here)", "values": [
      {"measurement": "effect on flagellin-induced ELAM-1 promoter activity compared with control RNA", "setting": "[4]", "result": "significantly increased"},
      {"measurement": "decrease in the number of cells with surface MUC1 expression", "setting": "MUC1; 48 h, FACS", "result": 67, "unit": "%"},
      {"measurement": "knockdown of total cellular MUC1 expression", "setting": "MUC1; 48 h post-nucleofection, immunoblot", "result": "approximately 95%"},
      {"measurement": "greater flagellin-induced IL-8 levels compared with control RNA", "setting": "[5]", "result": 50, "unit": "%"}
    ]},
    {"molecule": "B1", "values": [
      {"measurement": "increase in relative luciferase activity (ELAM-1 promoter) compared with fliC negative control", "setting": "[6]", "result": "greater than 10 fold"},
      {"measurement": "increase in IL-8 release compared with PBS treatment", "setting": "TLR5 [7]; HEK293T cells transfected with TLR5, 10 ng/ml flagellin 6 h", "result": 164, "unit": "%"},
      {"measurement": "increase in IL-8 release compared with PBS treatment", "setting": "TLR5 [7]; HEK293T cells transfected with empty vector, 10 ng/ml flagellin 6 h", "result": 55, "unit": "%"}
    ]}
  ]
}
